Experiments:
Melanocortin receptor 4 [1] = target: T1, Melanocortin receptor 4 (Homo sapiens, UniProt P32245); experiment: Antagonist activity at human MC4R in CHO cells measured for 24 hrs in presence of alpha-MSH; assay type: cell-based
[2] = Efflux ratio of apparent permeability from basolateral to apical side over apical to basolateral side in MDCK-MDR1 cells; assay type: ADME, cell-based, Canis lupus familiaris; details: dog
[3] = Metabolic stability in human hepatocyte assessed as intrinsic clearance measured per million cells HPLC/UV/MS analysis; assay type: ADME, cell-based; details: hepatocytes, read-out: CLH
[4] = Lipophilicity, logD of compound at pH 7.4 by shake flask method; assay type: physicochemical; details: buffer
Melanocortin receptor 4 [5] = target: T1, Melanocortin receptor 4; experiment: Antagonist activity at human MC4R in CHO cells measured for 24 hrs; assay type: cell-based
[6] = Metabolic stability in human hepatocyte assessed as intrinsic clearance measured per 10^6 cells HPLC/UV/MS analysis; assay type: ADME, cell-based; details: hepatocytes, read-out: CLH
[7] = target: Voltage-gated inwardly rectifying potassium channel KCNH2 (Homo sapiens, UniProt Q12809); experiment: Inhibition of hERG expressed in CHO cells stably at -80 mV holding potential by automated patch clamp method; assay type: toxicity, cell-based
Sequence of Voltage-gated inwardly rectifying potassium channel KCNH2 (Q12809 whole entry): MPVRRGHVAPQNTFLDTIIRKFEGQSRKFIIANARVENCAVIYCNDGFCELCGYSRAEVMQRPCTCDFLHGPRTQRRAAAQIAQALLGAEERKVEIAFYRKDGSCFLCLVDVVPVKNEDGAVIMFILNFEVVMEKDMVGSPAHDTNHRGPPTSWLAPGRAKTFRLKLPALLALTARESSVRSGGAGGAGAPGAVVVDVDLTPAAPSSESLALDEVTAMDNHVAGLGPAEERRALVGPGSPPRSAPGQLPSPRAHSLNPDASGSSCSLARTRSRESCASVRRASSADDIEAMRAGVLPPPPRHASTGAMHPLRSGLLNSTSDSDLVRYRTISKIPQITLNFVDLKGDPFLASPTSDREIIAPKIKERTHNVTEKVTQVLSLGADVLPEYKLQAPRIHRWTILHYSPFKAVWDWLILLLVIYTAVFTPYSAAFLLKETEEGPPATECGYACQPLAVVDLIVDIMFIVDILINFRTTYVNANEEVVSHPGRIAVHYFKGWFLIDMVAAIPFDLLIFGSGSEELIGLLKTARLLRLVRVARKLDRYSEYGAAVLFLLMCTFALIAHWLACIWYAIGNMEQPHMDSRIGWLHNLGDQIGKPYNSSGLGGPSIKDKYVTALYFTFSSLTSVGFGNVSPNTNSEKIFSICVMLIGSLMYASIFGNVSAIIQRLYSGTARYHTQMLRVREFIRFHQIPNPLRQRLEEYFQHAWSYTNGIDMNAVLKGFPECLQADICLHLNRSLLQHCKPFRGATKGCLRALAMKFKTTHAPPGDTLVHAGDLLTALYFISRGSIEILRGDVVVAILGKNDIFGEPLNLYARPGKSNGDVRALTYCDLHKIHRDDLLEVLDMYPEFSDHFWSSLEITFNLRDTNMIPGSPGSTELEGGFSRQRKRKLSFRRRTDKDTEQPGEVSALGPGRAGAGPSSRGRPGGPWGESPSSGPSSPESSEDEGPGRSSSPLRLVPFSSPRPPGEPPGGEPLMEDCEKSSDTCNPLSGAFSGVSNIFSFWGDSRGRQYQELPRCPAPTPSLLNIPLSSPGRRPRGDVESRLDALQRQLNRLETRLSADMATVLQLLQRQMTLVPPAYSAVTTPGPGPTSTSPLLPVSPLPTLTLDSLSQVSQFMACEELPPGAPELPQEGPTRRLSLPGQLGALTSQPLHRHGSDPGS

Cytochrome P450 3A = Cytochrome P450 3A (Homo sapiens, UniProt P08684+P20815+Q9HB55+P24462); experiment: Time dependent inhibition of CYP3A (unknown origin) at 10 uM relative to control; assay type: ADME, protein assay
[8] = Octanol-water distribution coefficient, logD of the compound at pH 7.4 by RP-HPLC analysis; assay type: physicochemical
Melanocortin receptor 4 [9] = target: T1, Melanocortin receptor 4; experiment: Antagonist activity at human MC4R expressed in CHO cells assessed as decrease in alpha-MSH induced cAMP level incubated for 1 hr by microplate reader analysis; assay type: functional, cell-based

T1 sequence (P32245 whole entry): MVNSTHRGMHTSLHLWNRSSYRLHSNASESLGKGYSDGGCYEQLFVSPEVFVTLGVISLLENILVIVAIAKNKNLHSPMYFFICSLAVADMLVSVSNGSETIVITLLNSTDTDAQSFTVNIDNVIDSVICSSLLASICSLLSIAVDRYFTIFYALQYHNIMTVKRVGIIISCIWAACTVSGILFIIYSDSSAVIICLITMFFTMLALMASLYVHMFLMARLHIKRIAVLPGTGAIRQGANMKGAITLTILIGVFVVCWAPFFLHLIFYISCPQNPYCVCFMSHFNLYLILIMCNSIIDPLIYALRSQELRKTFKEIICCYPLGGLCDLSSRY

Row | Compound | Ki (Melanocortin receptor 4 [1]) | Ratio [2] | hepatocyte CLint [3] | logD [4] | IC50 (Melanocortin receptor 4 [5]) | hepatocyte CLint [6] | K (Cytochrome P450 3A) | logD [8] | IC50 (Melanocortin receptor 4 [9]) | IC50 [7]
1 | COc1ccc2nc(N[C@H]3CCN(C(=O)Cc4cc(F)cc(F)c4)C3)c(C)cc2c1 | 910 nM |  |  |  |  |  |  |  |  | 
2 | COc1ccc2nc(N(C(=O)Cc3cc(F)cc(F)c3)[C@H]3CCNC3)ccc2c1 |  |  |  |  | 3.8 nM |  |  |  |  | 
3 | COc1cc([C@@H](C)C(=O)N2CC[C@H](Nc3ccc(-c4n[nH]c(C(F)F)n4)c(C)n3)C2)c(F)cn1 | 62 nM |  |  |  |  | 7.5 µL/min/1e6 cells |  |  |  | 19000 nM
4 | COc1cc([C@@H](C)C(=O)N2CC[C@H](Nc3ccc(-c4nc(C(F)F)n(C)n4)c(C)n3)C2)ccn1 | 1.4 nM | 16 | 10 µL/min/1e6 cells | 2.7 |  |  |  |  |  | 
5 | COc1cc([C@@H](C)C(=O)N2CC[C@H](Nc3ccc(-c4ncccn4)c(C)n3)C2)c(F)cn1 | 6.4 nM | 4.9 | 7.9 µL/min/1e6 cells | 2.6 |  |  |  |  |  | 
6 | COc1cc([C@@H](C)C(=O)N2CC[C@H](Nc3ccc(-c4nc(C(F)F)n(C)n4)c(C)n3)C2)c(F)cn1 |  |  | 15 µL/min/1e6 cells |  |  | 15 µL/min/1e6 cells | 0.015 min⁻¹ | 3.4 |  | 25000 nM
7 | COc1cc(CC(=O)N2CC[C@H](Nc3ccc(-c4nc(C(F)(F)F)n(C)n4)c(C)n3)C2)cc(OC)c1 |  |  | 34 µL/min/1e6 cells |  |  |  |  | 3.6 |  | 
8 | [2H]C([2H])([2H])n1nc(-c2ccc(N[C@H]3CCN(C(=O)[C@H](C)c4cc(OC)ncc4F)C3)nc2C)nc1C(F)F |  |  |  |  |  | 18 µL/min/1e6 cells |  |  |  | 28000 nM
9 | COc1cc([C@@H](C)C(=O)N2CC[C@H](Nc3ccc(-c4nc(C(F)(F)F)n(C)n4)c(C)n3)C2)c(F)cn1 |  | 6.1 | 15 µL/min/1e6 cells |  |  |  |  | 4.2 |  | 
10 | COc1ccc2nc(N[C@H]3CCN(C(=O)Cc4cc(F)cc(F)c4)C3)ccc2c1 | 0.62 nM | 8.6 |  |  | 7.8 nM | 28 µL/min/1e6 cells | 0.61 min⁻¹ |  | 360 nM | 360 nM

The next lines start with results.

Row | Ki (Melanocortin receptor 4 [1]) | Ratio [2] | hepatocyte CLint [3] | logD [4] | IC50 (Melanocortin receptor 4 [5]) | hepatocyte CLint [6] | K (Cytochrome P450 3A) | logD [8] | IC50 (Melanocortin receptor 4 [9]) | Compound | IC50 [7]
11 | 0.49 nM | 8.7 | 11 µL/min/1e6 cells | 3.2 |  |  |  |  |  | COc1cc([C@@H](C)C(=O)N2CC[C@@]3(CCc4cc(-c5nc(C(F)F)n(C)n5)c(C)nc4N3)C2)c(F)cn1 | 
12 | 19 nM | 19 |  |  | 240 nM | 4.5 µL/min/1e6 cells | 0.007 min⁻¹ |  |  | Cc1nc(N[C@H]2CCN(C(=O)Cc3ccc(F)cc3)C2)ccc1-c1ncn(C)n1 | 
13 | 5.5 nM | 6.1 |  |  | 210 nM | 20 µL/min/1e6 cells | 0.006 min⁻¹ |  |  | Cc1nc(N[C@H]2CCN(C(=O)Cc3ccc(F)cc3)C2)ccc1-c1nc(C(F)(F)F)n(C)n1 | 78000 nM
14 | 0.45 nM | 4.8 | 12 µL/min/1e6 cells |  | 8.4 nM |  |  |  |  | COc1cc([C@@H](C)C(=O)N2CC[C@@]3(CCc4cc(-c5nc(C(F)(F)F)n(C)n5)c(C)nc4N3)C2)c(F)cn1 | 
15 | 27 nM |  | 7.1 µL/min/1e6 cells |  |  |  |  |  |  | COc1cc(CC(=O)N2CC[C@H](Nc3ccc(-c4nc(C(F)F)n(C)n4)c(C)n3)C2)ccn1 | 
16 | 0.6 nM | 18 | 6.5 µL/min/1e6 cells | 2.6 | 39 nM |  |  |  |  | Cc1nc2c(cc1-c1cnn(C)c1)CC[C@@]1(CCN(C(=O)Cc3ccc(F)cc3)C1)N2 | 
17 |  |  | 4.9 µL/min/1e6 cells |  |  |  |  | 2.4 |  | Cc1nc2c(cc1-c1cnn(C)c1)OC[C@@]1(CCN(C(=O)Cc3ccc(F)cc3)C1)N2 | 
18 | > 2200 nM | 34 |  |  | 20000 nM |  |  | 1.9 |  | Cc1nc2c(cc1-c1cnn(C)c1)CC1(CCN(C(=O)Cc3ccc(F)cc3)C1)N2 (racemic) | 

Reference: ChEMBL document CHEMBL5316345, “Discovery of the Potent and Selective MC4R Antagonist PF-07258669 for the Potential Treatment of Appetite Loss” (J Med Chem, 2023)
